Publication PMC11650638, “In Vivo Activity Profiling of Biosynthetic Darobactin D22 against Critical Gram-Negative Pathogens” (ACS Infectious Diseases, 2024)
≈ marks a conversion by molar mass, not a printed value.

How the values were obtained:
[1] = test system: Pseudomonas aeruginosa PAO1; design: method as in PMID 36308277, PMID 38093695; details: cited from earlier work
[2] = test system: Escherichia coli ATCC25922; design: method as in PMID 36308277, PMID 38093695; details: cited from earlier work
[3] = test system: Acinetobacter baumannii ATCC17978; assay: Zebrafish embryo model of A. baumannii infection; details: 10 mg/kg, caudal vein microinjection 3 hpi
[4] = test system: Acinetobacter baumannii ATCC17978; assay: microbe, parasite or virus in culture; assay type: cell-based
Description: (§1) MIC90 determination was performed
(§2) MIC against Clinical Isolates of E. coli.
(§3) Zebrafish Infection Model
(§4) carbenicillin (Carl Roth, Karlsruhe, Germany).3
(§5) Minimum inhibitory concentrations

[5] = test system: Acinetobacter baumannii DSM30008; design: method as in PMID 36308277, PMID 38093695; details: cited from earlier work
Escherichia coli C175-94 = assay: Murine urinary tract infection model; assay type: in vivo, C3H/HeNHsd mice; details: positive control, BID, day 4
Description: One IV dosing arm at 5 mg/kg was included for comparison. Mice were treated for 3 days post-inoculation, and the bacterial burden was determined on day 4.
In vivo urinary tract infection model. The murine urinary tract infection model was conducted at Statens Serum Institut in Copenhagen, Denmark under the supervision of the Danish Animal Ethical […]
Bacterial challenge organism: The challenge organism was Escherichia coli C175-94 (serotype O8:K48:H4), a clinical isolate elaborating type 1 fimbriae, previously used for developing and validating the urinary tract infecti on model.7
Animals: Upon arrival to Statens Serum Institut animal facility, female C3H/HeNHsd mice 5 -6 weeks old (Envigo, Netherlands), were randomized to 8 mice per cage and acclimatized 1 week before experimental start. Bedding was from Tapvei and Enviro -Dri nesting material and cardboard houses (Bio-serv) was offered as enrichment. Mice had free access to domestic quality drinking water and food […]
Mice were monitored twice daily for clinical symptoms of infection or discomfort and euthanized if reaching humane endpoints specified in the ethical permission […]
Dickinson, cat. […] Colony counts of urine were determined immediately. […]
OD540nm of the supernatant was measured and the hemolytic % was calculated following the formula: (OD test compound – OD blank)-(OD positive

[6] = test system: Escherichia coli clinical isolates; assay: MIC against clinical isolates of E. coli (Statens Serum Institut, CLSI); assay type: cell-based
Description: as §1, §2, §3, §4, §5

Row | MIC ([6]; ATCC25922, E. coli ATCC25922) [µg/mL] | MIC ([6]; E. coli 50639799) [µg/mL] | MIC ([6]; E. coli C175-94) [µg/mL] | MIC ([6]; E. coli DSA443) [µg/mL] | MIC ([6]; E. coli EC 106-09 (ESBL)) [µg/mL] | Compound | MIC P. aeruginosa [1] [µg/mL] | MIC E. coli [2] [µg/mL] | clearance of A. baumannii infection within zebrafish embryos [3] | MIC ([4]; ATCC17978, GFP-tagged A. baumannii ATCC17978) [µg/mL] | MIC ([4]; ATCC17978, WT A. baumannii ATCC17978) [µg/mL] | MIC A. baumannii [5] [µg/mL] | bacterial burden in urine, bladder, kidney (Escherichia coli C175-94)
1 | – | – | – | – | – | N=C(N)NCCC[C@H](NC(=O)[C@H]1NC(=O)[C@H](CO)NC(=O)[C@H]2NC(=O)[C@H](CCC(N)=O)NC(=O)[C@@H](N)Cc3c[nH]c4c(cccc34)O[C@@H]2c2c[nH]c3cc(ccc23)[C@@H]1CCCN)C(=O)N[C@@H](Cc1c[nH]c2ccccc12)C(=O)O [Darobactin D69] | 1 (≈ 0.919 µM) | 1 (≈ 0.919 µM) | completely cleared | 1 (≈ 0.919 µM) | 2 (≈ 1.84 µM) | 0.5 (≈ 0.459 µM) | –
2 | 0.5 to 1 (≈ 1.05 to 2.09 µM) | 16 to 32 (≈ 33.5 to 67 µM) | 2 (≈ 4.19 µM) | > 64 | 1 to 2 (≈ 2.09 to 4.19 µM) | CNC(C)C1CCC(N)C(OC2C(N)CC(N)C(OC3OCC(C)(O)C(NC)C3O)C2O)O1 (stereo not drawn) [Gentamicin, gentamicin] | – | – | – | – | – | – | reduction of bacterial burden below stasis level in all tissues
